{"source": "ChEMBL document CHEMBL6121054", "about": "“Discovery of Metabolic Reprogramming 2-Quinolones as Effective Antimicrobials for MRSA-Infected Wound Therapy” (J Med Chem, 2025)", "key": {"[1]": {"tested_on": "Staphylococcus aureus", "assay": "Antibacterial activity against Staphylococcus aureus USA300 incubated for 16 to 24 hrs by broth microdilution method", "type": "functional", "settings": "time 16-24 hrs"}, "[2]": {"tested_on": "Staphylococcus aureus", "assay": "Antibacterial activity against Staphylococcus aureus DU1090 incubated for 16 to 24 hrs by broth microdilution method", "type": "functional", "settings": "time 16-24 hrs"}, "[3]": {"tested_on": "Staphylococcus aureus", "assay": "Antibacterial activity against Staphylococcus aureus ATCC 25923 incubated for 16 to 24 hrs by broth microdilution method", "type": "functional", "settings": "time 16-24 hrs"}, "[4]": {"tested_on": "Staphylococcus aureus", "assay": "Antibacterial activity against Staphylococcus aureus ATCC 29213 incubated for 16 to 24 hrs by broth microdilution method", "type": "functional", "settings": "time 16-24 hrs"}, "[5]": {"tested_on": "Listeria monocytogenes", "assay": "Antibacterial activity against Listeria monocytogenes EGD incubated for 16 to 24 hrs by broth microdilution method", "type": "functional", "settings": "time 16-24 hrs"}, "[6]": {"tested_on": "Listeria monocytogenes", "assay": "Antibacterial activity against Listeria monocytogenes ATCC 19115 incubated for 16 to 24 hrs by broth microdilution method", "type": "functional", "settings": "time 16-24 hrs"}, "[7]": {"tested_on": "Staphylococcus aureus", "assay": "Antibacterial activity against methicillin-resistant Staphylococcus aureus MRSA 1 incubated for 16 to 24 hrs by broth microdilution method", "type": "functional", "settings": "Staphylococcus aureus, MRSA 1, time 16-24 hrs; read-out: MIC"}, "[8]": {"tested_on": "Staphylococcus aureus", "assay": "Antibacterial activity against methicillin-resistant Staphylococcus aureus MRSA 2 incubated for 16 to 24 hrs by broth microdilution method", "type": "functional", "settings": "time 16-24 hrs"}, "[9]": {"tested_on": "Escherichia coli", "assay": "Antibacterial activity against Escherichia coli ATCC 25922 incubated for 16 to 24 hrs by broth microdilution method", "type": "functional", "settings": "time 16-24 hrs"}, "[10]": {"tested_on": "Klebsiella pneumoniae", "assay": "Antibacterial activity against Klebsiella pneumoniae 13b5 incubated for 16 to 24 hrs by broth microdilution method", "type": "functional", "settings": "time 16-24 hrs"}, "[11]": {"tested_on": "Klebsiella pneumoniae", "assay": "Antibacterial activity against Klebsiella pneumoniae E8.31 incubated for 16 to 24 hrs by broth microdilution method", "type": "functional", "settings": "time 16-24 hrs"}, "[12]": {"tested_on": "Staphylococcus aureus", "assay": "Bactericidal activity against Staphylococcus aureus USA300", "type": "functional"}, "[13]": {"tested_on": "Staphylococcus aureus", "assay": "Bactericidal activity against Staphylococcus aureus ATCC 25904", "type": "functional"}, "[14]": {"tested_on": "Staphylococcus aureus", "assay": "Bactericidal activity against Staphylococcus aureus ATCC 25923", "type": "functional"}, "[15]": {"tested_on": "Staphylococcus aureus", "assay": "Bactericidal activity against Staphylococcus aureus NCTC 8325-4", "type": "functional"}, "[16]": {"tested_on": "Staphylococcus aureus", "assay": "Bactericidal activity against Staphylococcus aureus DU1090", "type": "functional"}, "[17]": {"tested_on": "Acinetobacter baumannii", "assay": "Bactericidal activity against Acinetobacter baumannii ATCC 17978", "type": "functional"}, "[18]": {"tested_on": "Escherichia coli", "assay": "Bactericidal activity against Escherichia coli ATCC ZJ487", "type": "functional"}, "[19]": {"tested_on": "Staphylococcus aureus", "assay": "Bacteriostatic activity against methicillin-resistant Staphylococcus aureus USA300 at 1 to 2 times MIC measured upto 24 hrs by time-kill assay", "type": "functional, organism-based"}, "[20]": {"tested_on": "Staphylococcus aureus", "assay": "Bactericidal activity against methicillin-resistant Staphylococcus aureus USA300 at 4 times MIC measured for 12 to 24 hrs by time-kill assay", "type": "functional, organism-based", "settings": "time 12-24 hrs"}, "[21]": {"tested_on": "Streptococcus suis", "assay": "Bactericidal activity against Streptococcus suis ZY05719 measured upto 24 hrs by time-kill assay", "type": "functional, organism-based"}, "[22]": {"tested_on": "Listeria monocytogenes", "assay": "Bactericidal activity against Listeria monocytogenes EGD measured upto 24 hrs by time-kill assay", "type": "functional, organism-based"}, "[23]": {"tested_on": "Staphylococcus aureus", "assay": "Disruption of cell membrane integrity in Staphylococcus aureus USA300 assessed as indistinct cytoplasmic borders at 4 to 8 times MIC by TEM/SEM analysis", "type": "functional, organism-based"}, "[24]": {"tested_on": "Staphylococcus aureus", "assay": "Disruption of cell membrane integrity in Staphylococcus aureus USA300 assessed as swelling at 4 to 8 times MIC by TEM/SEM analysis", "type": "functional, organism-based"}, "[25]": {"tested_on": "Staphylococcus aureus", "assay": "Induction of cell permeability in Staphylococcus aureus USA300 upto 0.13 uM by PI dye based analysis", "type": "functional, organism-based"}, "[26]": {"tested_on": "Staphylococcus aureus", "assay": "Effect on purine metabolism in Staphylococcus aureus USA300 at 4 times MIC by KEGG analysis", "type": "functional, organism-based"}, "[27]": {"tested_on": "Staphylococcus aureus", "assay": "Effect on biosynthesis of co-factors in Staphylococcus aureus USA300 at 4 times MIC by KEGG analysis", "type": "functional, organism-based"}, "[28]": {"tested_on": "Staphylococcus aureus", "assay": "Antibacterial activity against Staphylococcus aureus USA300 assessed as acceleration of TCA cycle measured by decrease in NAD+/NADH ratio upto 0.25 ug/ml incubated for 5 hrs", "type": "functional, organism-based", "settings": "dose <= 0.25 µg/ml"}, "[29]": {"tested_on": "Staphylococcus aureus", "assay": "Antibacterial activity against Staphylococcus aureus USA300 assessed as acceleration of TCA cycle measured by increase in gltA mRNA level upto 0.25 ug/ml incubated for 6 hrs by RT-PCR analysis", "type": "functional, organism-based", "settings": "dose <= 0.25 µg/ml"}, "[30]": {"tested_on": "Staphylococcus aureus", "assay": "Induction of H2O2 accumulation in Staphylococcus aureus USA300 upto 0.25 ug/ml incubated for 5 hrs", "type": "functional, organism-based", "settings": "dose <= 0.25 µg/ml"}, "[31]": {"tested_on": "A549", "assay": "Cytotoxicity against human A549 cells assessed as cell viability upto 8 ug/ml incubated for 6 hrs by LDH assay", "type": "toxicity, cell-based", "settings": "a549, 6 h, dose < 8 µg/ml"}, "[32]": {"tested_on": "J774.A1", "assay": "Cytotoxicity against mouse J774.A1 cells assessed as cell viability upto 8 ug/ml incubated for 6 hrs by LDH assay", "type": "toxicity, cell-based", "settings": "j774.a1, 6 h, dose < 8 µg/ml"}, "[33]": {"tested_on": "A549", "assay": "Reversal of Staphylococcus aureus USA300-induced cytotoxicity in human A549 cells infected with bacteria assessed as cell viability upto 8 ug/ml preincubated with compound followed by […] infection for 5 hrs by LDH assay", "type": "functional, cell-based", "settings": "dose <= 8.0 µg/ml"}, "[34]": {"tested_on": "A549", "assay": "Reversal of Staphylococcus aureus USA300-induced cytotoxicity in human A549 cells infected with bacteria assessed as reduction in number of dead cells at 4 to 8 ug/ml preincubated with compound followed by […] infection for 5 hrs by Calcein AM/Ethidium homodimer-1 dye based analysis", "type": "functional, cell-based", "settings": "dose 4-8 µg/ml"}, "[35]": {"tested_on": "Staphylococcus aureus", "assay": "Antibacterial activity against methicillin-resistant Staphylococcus aureus infected in BALB/c mouse wound model assessed as decrease in wound area at 20 to 80 mg/kg administered topically on days 0, 3 and 6 measured after 12 days", "type": "functional, organism-based", "settings": "dose 20-80 mg/kg, route top, time 12.0 day"}, "[36]": {"tested_on": "Staphylococcus aureus", "assay": "Antibacterial activity against methicillin-resistant Staphylococcus aureus infected in BALB/c mouse wound model assessed as decrease in wound diameter at 20 to 80 mg/kg administered topically on days 0, 3 and 6 measured after 12 days", "type": "functional, organism-based", "settings": "dose 20-80 mg/kg, route top, time 12.0 day"}, "[37]": {"tested_on": "Staphylococcus aureus", "assay": "Antibacterial activity against methicillin-resistant Staphylococcus aureus infected in BALB/c mouse wound model assessed as reduction in bacterial load at 20 to 80 mg/kg administered topically on days 0, 3 and 6 measured after 12 days", "type": "functional, organism-based", "settings": "dose 20-80 mg/kg, route top, time 12.0 day"}, "[38]": {"tested_on": "Staphylococcus aureus", "assay": "Antibacterial activity against methicillin-resistant Staphylococcus aureus infected in BALB/c mouse wound model assessed as reduction in bacterial load at 20 to 80 mg/kg administered topically on days 0, 3 and 6 measured after 6 days", "type": "functional, organism-based", "settings": "dose 20-80 mg/kg, route top, time 6.0 day"}, "[39]": {"tested_on": "Staphylococcus aureus", "assay": "Antibacterial activity against methicillin-resistant Staphylococcus aureus infected in BALB/c mouse wound model assessed as angiogenesis in skin tissue by measuring increase in CD31 expression at 20 to 80 mg/kg administered topically on days 0, 3 and 6 measured after 12 days by IHC analysis", "type": "functional, organism-based", "settings": "dose 20-80 mg/kg, route top, time 12.0 day"}, "[40]": {"tested_on": "Staphylococcus aureus", "assay": "Antibacterial activity against methicillin-resistant Staphylococcus aureus infected in BALB/c mouse wound model assessed as decrease in CD68 expression in skin tissue at 20 to 80 mg/kg administered topically on days 0, 3 and 6 measured after 12 days by IHC analysis", "type": "functional, organism-based", "settings": "dose 20-80 mg/kg, route top, time 12.0 day"}, "[41]": {"tested_on": "Staphylococcus aureus", "assay": "Antibacterial activity against methicillin-resistant Staphylococcus aureus infected in BALB/c mouse wound model assessed as reversal of inflammation-induced TNF-alpha level in wound at 20 to 80 mg/kg administered topically on days 0, 3 and 6 measured after 12 days by ELISA", "type": "functional, organism-based", "settings": "dose 20-80 mg/kg, route top, time 12.0 day"}}, "note": "Calls of active or inactive are those of the source. The rule behind the calls is not given here.", "data": [{"compound": "CCn1c(=O)c(C(=O)Nc2nnc(-c3ccc(C)cn3)s2)c(O)c2ccccc21", "values": [{"measurement": "MIC", "setting": "[1]", "result": 0.04, "unit": "µg/mL"}, {"measurement": "MIC", "setting": "[2]", "result": 0.02, "unit": "µg/mL"}, {"measurement": "MIC", "setting": "[3]", "result": 0.03, "unit": "µg/mL"}, {"measurement": "MIC", "setting": "[4]", "result": 0.03, "unit": "µg/mL"}, {"measurement": "MIC", "setting": "[5]", "result": 0.02, "unit": "µg/mL"}, {"measurement": "MIC", "setting": "[6]", "result": 0.02, "unit": "µg/mL"}, {"measurement": "MIC", "setting": "[7]", "result": 0.02, "unit": "µg/mL"}, {"measurement": "MIC", "setting": "[8]", "result": 0.02, "unit": "µg/mL"}, {"measurement": "MIC", "setting": "[9]", "result": "> 512", "unit": "µg/mL"}, {"measurement": "MIC", "setting": "[10]", "result": "> 512", "unit": "µg/mL"}, {"measurement": "MIC", "setting": "[11]", "result": "> 512", "unit": "µg/mL"}, {"measurement": "MBC", "setting": "[12]", "result": 0.16, "unit": "µg/mL"}, {"measurement": "MBC", "setting": "[13]", "result": 0.17, "unit": "µg/mL"}, {"measurement": "MBC", "setting": "[14]", "result": 0.1, "unit": "µg/mL"}, {"measurement": "MBC", "setting": "[15]", "result": 0.09, "unit": "µg/mL"}, {"measurement": "MBC", "setting": "[16]", "result": 0.23, "unit": "µg/mL"}, {"measurement": "MBC", "setting": "[17]", "result": "> 512", "unit": "µg/mL"}, {"measurement": "MBC", "setting": "[18]", "result": "> 512", "unit": "µg/mL"}, {"measurement": "Activity", "setting": "[19]", "result": "Active"}, {"measurement": "Activity", "setting": "[20]", "result": "Active"}, {"measurement": "Activity", "setting": "[21]", "result": "Active; Bacteria Were Suppressed Or Completely Eliminated"}, {"measurement": "Activity", "setting": "[22]", "result": "Active; Bacteria Were Suppressed Or Completely Eliminated"}, {"measurement": "Activity", "setting": "[23]", "result": "Active"}, {"measurement": "Activity", "setting": "[24]", "result": "Active"}, {"measurement": "Activity", "setting": "[25]", "result": "Active"}, {"measurement": "Activity", "setting": "[26]", "result": "Active"}, {"measurement": "Activity", "setting": "[27]", "result": "Active"}, {"measurement": "Activity", "setting": "[28]", "result": "Active"}, {"measurement": "Activity", "setting": "[29]", "result": "Active"}, {"measurement": "Activity", "setting": "[30]", "result": "Active"}, {"measurement": "Activity", "setting": "[31]", "result": "Non-toxic"}, {"measurement": "Activity", "setting": "[32]", "result": "Non-toxic"}, {"measurement": "Activity", "setting": "[33]", "result": "Active"}, {"measurement": "Activity", "setting": "[34]", "result": "Active"}, {"measurement": "Activity", "setting": "[35]", "result": "Active"}, {"measurement": "Activity", "setting": "[36]", "result": "Active"}, {"measurement": "Activity", "setting": "[37]", "result": "Active"}, {"measurement": "Activity", "setting": "[38]", "result": "inactive"}, {"measurement": "Activity", "setting": "[39]", "result": "Active"}, {"measurement": "Activity", "setting": "[40]", "result": "Active"}, {"measurement": "Activity", "setting": "[41]", "result": "Active"}]}]}
